In assay [1] the test system is HCT-116. Briefly: In vitro cytotoxic activity against human cancer cell line HCT116 by using MTT assay. Type of assay: functional, cell-based.
Assay [2] relates to K562. Briefly: In vitro cytotoxic activity against human cancer cell line K562 by using MTT assay. Type of assay: functional, cell-based. On the technique in general: Tetrazolium dyes change colour on reduction, which living cells bring about.
Assay [3] has as its system Mus musculus. Nature of the assay: In vivo antitumor activity against Colon 26 murine tumor model at a dose of 10 mg/kg administered intravenously. Type of assay: functional. The note with it: route intravenous.
The subject of assay [4] is P388. Briefly: In vitro cytotoxic activity against murine cancer cell line P388 by using MTT assay. Type of assay: functional, cell-based. The note with it: Mus musculus.
For assay [5], the target named is T1, DNA topoisomerase 2 (Drosophila melanogaster, UniProt P15348).
T1 sequence (P15348 whole entry): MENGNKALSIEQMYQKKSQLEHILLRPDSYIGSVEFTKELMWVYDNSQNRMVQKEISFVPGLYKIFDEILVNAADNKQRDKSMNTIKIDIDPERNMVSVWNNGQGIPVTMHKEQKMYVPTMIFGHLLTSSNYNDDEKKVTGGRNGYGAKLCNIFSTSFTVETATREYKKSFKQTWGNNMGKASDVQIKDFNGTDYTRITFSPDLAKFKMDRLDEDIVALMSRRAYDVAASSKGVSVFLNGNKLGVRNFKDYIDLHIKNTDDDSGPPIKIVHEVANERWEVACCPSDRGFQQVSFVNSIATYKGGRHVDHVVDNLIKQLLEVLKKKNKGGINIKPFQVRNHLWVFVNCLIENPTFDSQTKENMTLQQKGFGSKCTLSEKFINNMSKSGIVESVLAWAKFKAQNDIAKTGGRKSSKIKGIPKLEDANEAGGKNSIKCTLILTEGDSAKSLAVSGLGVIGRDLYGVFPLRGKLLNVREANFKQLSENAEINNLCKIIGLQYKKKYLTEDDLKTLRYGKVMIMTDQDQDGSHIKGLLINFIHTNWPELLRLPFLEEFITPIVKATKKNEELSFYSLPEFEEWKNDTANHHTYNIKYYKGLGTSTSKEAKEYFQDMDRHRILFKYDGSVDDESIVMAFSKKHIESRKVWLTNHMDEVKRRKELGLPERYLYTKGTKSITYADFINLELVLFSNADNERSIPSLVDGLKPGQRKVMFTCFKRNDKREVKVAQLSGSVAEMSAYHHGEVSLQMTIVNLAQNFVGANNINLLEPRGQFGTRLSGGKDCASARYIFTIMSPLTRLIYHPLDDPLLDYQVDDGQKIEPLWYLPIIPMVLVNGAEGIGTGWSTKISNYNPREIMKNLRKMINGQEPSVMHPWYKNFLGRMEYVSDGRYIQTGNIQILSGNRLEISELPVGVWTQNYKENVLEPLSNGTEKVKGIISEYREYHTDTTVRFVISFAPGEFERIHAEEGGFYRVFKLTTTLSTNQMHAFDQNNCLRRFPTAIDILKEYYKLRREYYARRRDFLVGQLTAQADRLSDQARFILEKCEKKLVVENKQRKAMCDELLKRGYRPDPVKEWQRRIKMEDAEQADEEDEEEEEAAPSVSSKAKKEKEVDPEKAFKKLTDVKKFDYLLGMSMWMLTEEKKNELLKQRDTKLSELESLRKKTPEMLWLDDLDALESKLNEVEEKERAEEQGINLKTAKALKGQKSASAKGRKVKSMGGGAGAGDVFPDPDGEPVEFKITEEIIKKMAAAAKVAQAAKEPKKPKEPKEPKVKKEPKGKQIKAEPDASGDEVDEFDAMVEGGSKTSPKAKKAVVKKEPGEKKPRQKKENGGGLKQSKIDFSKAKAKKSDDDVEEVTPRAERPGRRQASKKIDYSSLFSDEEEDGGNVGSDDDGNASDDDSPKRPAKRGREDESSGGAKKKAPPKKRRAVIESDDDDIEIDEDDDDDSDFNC
Briefly: In vitro inhibitory activity against topoisomerase II (Topo II) by using decatenation assay.

Assay [6] concerns the target T2, DNA topoisomerase 1 (Mus musculus, UniProt Q04750).
T2 sequence (Q04750 whole entry): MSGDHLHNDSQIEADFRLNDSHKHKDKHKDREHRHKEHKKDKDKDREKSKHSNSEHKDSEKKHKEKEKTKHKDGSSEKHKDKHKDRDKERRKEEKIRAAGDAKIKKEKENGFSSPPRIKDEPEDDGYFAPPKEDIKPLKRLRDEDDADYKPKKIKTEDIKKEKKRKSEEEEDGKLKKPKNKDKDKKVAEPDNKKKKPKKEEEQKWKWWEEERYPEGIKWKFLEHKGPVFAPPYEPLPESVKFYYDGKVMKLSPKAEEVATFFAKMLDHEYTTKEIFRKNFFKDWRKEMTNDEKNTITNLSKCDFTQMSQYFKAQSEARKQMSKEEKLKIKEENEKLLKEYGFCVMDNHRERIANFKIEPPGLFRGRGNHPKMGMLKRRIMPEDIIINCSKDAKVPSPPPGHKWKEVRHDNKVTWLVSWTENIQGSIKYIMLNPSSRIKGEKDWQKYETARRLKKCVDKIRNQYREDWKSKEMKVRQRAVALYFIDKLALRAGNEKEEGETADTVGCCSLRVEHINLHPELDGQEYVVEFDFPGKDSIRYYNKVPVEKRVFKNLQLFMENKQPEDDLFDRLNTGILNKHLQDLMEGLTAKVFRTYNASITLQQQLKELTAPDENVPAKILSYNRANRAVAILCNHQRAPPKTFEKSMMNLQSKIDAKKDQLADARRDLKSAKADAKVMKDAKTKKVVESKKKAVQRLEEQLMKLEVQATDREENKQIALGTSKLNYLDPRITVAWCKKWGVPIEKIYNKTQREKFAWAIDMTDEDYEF
Briefly: In vitro inhibitory activity against topoisomerase I (Topo I) by using relaxation assay.

Assay [7] relates to HCT-116. Nature of the assay: In vitro cytotoxic activity against HCT116 human cancer cell line at 40 uM; IA means Inactive. Type of assay: functional, cell-based.
Assay [8] concerns Mus musculus. Briefly: In vivo antitumor activity against Colon 26 murine tumor model at a dose of 20 mg/kg administered intravenously. The settings on record: route intravenous. Type of assay: functional.

Results on eight molecules are retold here after ChEMBL document CHEMBL1131976, “Syntheses of novel antitumor dihydroxanthone derivatives with inhibitory activity against DNA topoisomerase II” (Bioorg Med Chem Lett, 1999).

By IC50 is commonly meant the concentration at which inhibition is half-maximal.

For `Cc1cc(O)c2c(c1)O[C@@]1(C(N)=O)C(=CC=C[C@H]1O)C2=O`, the IC50 in assay [1] stood at 330 nM; in assay [2], 590 nM; in assay [4], 52 nM; in assay [5] it was 29000 nM; in assay [6], 63000 nM. Also, the Activity in assay [3] stood at 42%.
As to `Cc1cc(O)c2c(c1)O[C@@]13C(=O)N(C)[C@@H](CC=C1C2=O)[C@H]3O`, the concentration for half-maximal inhibition (IC50) in assay [1] is 19600 nM; in assay [2], 6310 nM; in assay [5] it was greater than 300000 nM; in assay [6], greater than 300000 nM.
Regarding `Cc1cc(O)c2c(c1)O[C@@]1(C(=O)N(C)C)C(=CC=C[C@H]1O)C2=O`, the IC50 came to 790 nM in assay [1], 980 nM in assay [2] and 150 nM in assay [4].
On to `Cc1cc(O)c2c(c1)O[C@@]1(C(=O)N3CCCC3)C(=CC=C[C@H]1O)C2=O`, for which the IC50 was found to be 1640 nM in assay [1], 1520 nM in assay [2] and 560 nM in assay [4].
As for `Cc1cc(O)c2c(=O)c3ccccc3oc2c1`, in assay [7], the IC50 entry is given as “Not Active”.
Consider `COC(=O)[C@]12Oc3cc(C)cc(O)c3C(=O)C1=CC=C[C@H]2O`, for which the half-maximal inhibitory concentration (IC50) in assay [1] came to 140 nM; in assay [2], 320 nM; in assay [4] it was 24 nM; in assay [5] it was 2200 nM; in assay [6] it was 172000 nM. The molecule further showed an Activity in assay [8] of 24%.
`CNC(=O)[C@]12Oc3cc(C)cc(O)c3C(=O)C1=CC=C[C@H]2O`: the 50% inhibitory concentration (IC50) in assay [1] was 1130 nM; in assay [2] it was 2260 nM; in assay [4], 240 nM; in assay [5], 132000 nM; in assay [6] it was greater than 300000 nM.
In the case of `Cc1cc(O)c2c(c1)O[C@@]1(C(=O)NCCO)C(=CC=C[C@H]1O)C2=O`, the 50% inhibitory concentration (IC50) in assay [1] came to 7880 nM; in assay [2] it was 10600 nM; in assay [4] it was 2670 nM; in assay [5] it was 23000 nM; in assay [6], 102000 nM.
